Patent publication US12162867B2, “Inhibitors of RNA helicase DHX9 and uses thereof” (ACCENT THERAPEUTICS, INC., priority 2022, dated 2024)
Read-outs that look alike come from different tables or passages of the source.

Tests used:
Assay type in all cases: cell-based
LS411N cells = assay: DHX9 cellular proliferation assay (CellTiter-Glo), LS411N (CRC-MSI); conditions: Homo sapiens, LS-411N, LS411N, performed at Pharmaron, read-out: LS411N (CRC-MSI-H) Antiproliferative IC50
NCI-H747 cells = assay: DHX9 cellular proliferation assay (CellTiter-Glo), NCI-H747 (CRC-MSS); conditions: Homo sapiens, performed at Pharmaron, read-out: H747 (CRC-MSS) Antiproliferative IC50
[1] = tested on: circBRIP1 in HCT116 cells; assay: DHX9 circBRIP1 cellular target engagement TaqMan Multiplex assay (qPCR); conditions: Homo sapiens, read-out: DHX9 Cellular Target Engagement EC50
[2] = HCT-116, circBRIP1, HCT116 cells, * Taqman assay was used
[3] = HCT-116, 72 h, circBRIP1, HCT116 cells, 72 hours, Taqman assay (marked *)

SMILES | IC50 (NCI-H747 cells; NCI-H747, NCI-H747) | EC50 [1, 2] | IC50 (NCI-H747 cells; NCI-H747, NCI-H747, CRC-MSS) | EC50 [1, 3] | IC50 (LS411N cells) | IC50 (LS411N cells; CRC-MSI-H)
Cc1sc(C(=O)Nc2cc(Cl)cc(NS(C)(=O)=O)c2)cc1-c1ncc(OC2CN(C)C2)cc1F [Example 635] | > 10000 nM | 19.1 nM | – | – | 79.2 nM | –
Cn1cc(C(=O)Nc2cc(Cl)cc(NS(C)(=O)=O)c2)cc1-c1ccc(N2CC(CS(C)(=O)=O)C2)cn1 [Example 695] | > 10000 nM | 143 nM | – | – | 2970 nM | –
CCS(=O)(=O)Nc1cc(Cl)cc(NC(=O)c2cc(-c3ncc(F)cc3OCc3cncnc3)c(C)s2)c1 [Example 623] | > 10000 nM | 11.2 nM | – | – | 72.3 nM | –
COc1ccc(-c2cc(C(=O)Nc3cc(Cl)cc(NS(C)(=O)=O)c3)sc2C)nc1 [Example 352] | – | – | 8750 nM | 21 nM | – | 50 nM
Cc1sc(C(=O)Nc2cc(Cl)cc(NS(C)(=O)=O)c2)cc1-c1ncc(C2CCN(CC(F)(F)F)CC2)cc1F [Example 618] | 1850 nM | 45.4 nM | – | – | 132 nM | –
CCOc1cnc(-c2cc(C(=O)Nc3cc(Cl)cc(NS(C)(=O)=O)c3)sc2C)c(F)c1 [Example 456] | 1940 nM | 32.8 nM | – | – | 209 nM | –
Cn1cc(C(=O)Nc2cc(Cl)cc(NS(C)(=O)=O)c2)cc1-c1ncncc1OCc1cc(F)cc(F)c1 [Example 627] | > 10000 nM | 37.6 nM | – | – | 29.4 nM | –
Cn1cc(C(=O)Nc2cc(Cl)cc(NS(C)(=O)=O)c2)cc1-c1ncc(OC2CN(CC(F)F)C2)cc1F [Example 614] | 3190 nM | 26.9 nM | – | – | 53.1 nM | –
Cc1cc(C#N)cnc1-c1cc(C(=O)Nc2cc(Cl)cc(NS(C)(=O)=O)c2)sc1C [Example 376] | – | – | > 10000 nM | 69.9 nM | – | 303 nM
CNc1cnc(-c2cc(C(=O)Nc3cc(Cl)cc(NS(C)(=O)=O)c3)sc2C)nc1 [Example 616, N-(3-chloro-5-methanesulfonamidophenyl)-5-methyl-4-[5-(methylamino)pyrimidin-2-yl]thiophene-2-carboxamide] | > 10000 nM | 17.3 nM | – | – | 348 nM | –
Cc1sc(C(=O)Nc2cc(Cl)cc(NS(C)(=O)=O)c2)cc1-c1ncc(N2CCC(F)(F)CC2)cc1F [Example 471] | 8870 nM | 27.5 nM | – | – | 72.5 nM | –

More lines, main results first:

IC50 (NCI-H747 cells; NCI-H747, NCI-H747) | EC50 [1, 2] | IC50 (NCI-H747 cells; NCI-H747, NCI-H747, CRC-MSS) | EC50 [1, 3] | SMILES | IC50 (LS411N cells) | IC50 (LS411N cells; CRC-MSI-H)
> 10000 nM | 25.7 nM | – | – | COc1cc(N2CC(F)(F)C2)cnc1-c1cc(C(=O)Nc2cc(Cl)cc(NS(C)(=O)=O)c2)cn1C [Example 462] | 257 nM | –
– | – | > 10000 nM | 96.8 nM | CCS(=O)(=O)Nc1cc(Cl)cc(NC(=O)c2cc(-c3ncc(F)cc3F)c(C)s2)c1 [Example 347] | – | 160 nM
3870 nM | 50.6 nM | – | – | Cc1cc(C(=O)Nc2cc(Cl)cc(NS(C)(=O)=O)c2)cn1-c1ncc(N2CC(F)(F)C2)cc1F [Example 420] | 353 nM | –
> 10000 nM | 57.3 nM | – | – | Cn1cc(C(=O)Nc2cc(Cl)cc(NS(C)(=O)=O)c2)cc1-c1ncc(N2CCC3(CC2)CC3(F)F)cc1F [Example 518] | 203 nM | –
> 10000 nM | 45.5 nM | – | – | Cc1sc(C(=O)Nc2cc(Cl)cc(NS(C)(=O)=O)c2)cc1-c1ncc(N2CC(F)(F)C2)cc1OC1CCC1 [Example 514] | 149 nM | –
> 10000 nM | 48.3 nM | – | – | COc1cnc(-c2cc(C(=O)Nc3cc(Cl)cc(NS(C)(=O)=O)c3)cn2C)nc1 [Example 549] | 369 nM | –
> 10000 nM | 71.6 nM | – | – | Cn1cc(C(=O)Nc2cc(Cl)cc(NS(C)(=O)=O)c2)cc1-c1ncc(OC(F)F)cn1 [Example 553] | 211 nM | –
6530 nM | 30 nM | – | – | Cc1cc(N2CC(F)(F)C2)cnc1-c1cc(C(=O)Nc2cc(Cl)cc(NS(C)(=O)=O)c2)sc1C [Example 537] | 82.8 nM | –
8030 nM | 51.2 nM | – | – | CCS(=O)(=O)Nc1cc(Cl)cc(NC(=O)c2cc(C)n(-c3ncc(N4CC(F)(F)C4)cn3)c2)c1 [Example 423] | 269 nM | –
